Reference: US20030104507A1, “Method for detection of ATP” (priority 2001, published 2003)

Test system: ATPase activity endogenous to L929 cell lysate
Test: Detergent inhibition of ATPase endogenous to L929 cell lysate (ATP remaining by luciferase luminescence, 22° C.)
Type: biochemical
Set-up: key to Relative ATPase Activity, slope det/slope lysate: slope with detergent / slope without; ≥1.0 = 100% activity, 0.5 = 50%
Procedure: Three separate detergents in each of four detergent classes were tested: anionic [SDS (Sodium dodecyl sulfate), Bioterge (an α olefin sulfate), and sodium deoxycholate], nonionic [TRITON X-100, BigCHAP (N,N-bis(3-D-Gluconamidopropyl)cholamide) and THESIT (polyethylene glycol 400 dodecyl ether, Fluka, #88315)], cationic [BDDABr (Benzyldimethyldodecylammonium bromide), CTAB (Cetyltrimethylammonium bromide), and DTAB (dodecyltrimethylammonium bromide)] and zwitterionic [CHAPS (3[(3-Cholamidopropyl)dimethylammonio]propanesulfonic acid), CHAPSO (3-([3-Cholamidopropyl]dimethylammonio)-2-hydroxy-1-propanesulfonate), and Sulfobetaine 3-10 ([…]-N,N-dimethyl-3-ammonio-1-propanesulfonate)]. Detergents were obtained from Sigma, Fluka and Aldrich.
L929 cells (ATCC CCL-1; 1.5×10^5 cells/ml) in F12/DMEM (Hyclone, SH30023) containing 10% horse serum (Hyclone, SH30074) were frozen and thawed for four cycles to create a cell lysate. Then 50 μl of stock detergent solutions [10%, 5.0%, 1.0%, and 0.5% (w/v)] were separately added to 450 μl cell lysate, creating a final detergent concentration in the cell lysate sample of 1.0%, 0.5%, 0.1%, and 0.05%, respectively (these percentage values are those used in Tables D and E herein below). Control samples contained either lysate only or 1.0 μM ATP in 15 mM HEPES buffer (pH 7.5). All samples were incubated at 22° C. (room temperature) for the duration of the experiment.
At various timepoints, 20 μl from each sample/detergent mixture was added to a 96-well luminometer plate in triplicate, and then 100 μl of a solution (“luciferase-luciferin” or “L/L reagent”) containing 25 mM HEPES buffer (pH 7.5), 40 μg luciferase enzyme LucPpe2m146 (Promega, E140), 100 μM luciferin (Promega), and 10 mM MgSO4 was added to each well. The L/L reagent was stored at 4° C. for the duration of the experiment and then allowed to reach ambient temperature just before assaying. After mixing the contents of the plate, light output was measured with a Dynex MLX microtiter plate luminometer (Chantilly, Va.), 0.5 second reads per well with the first measurement taken five minutes after the detergent solution was combined with the sample. The average relative light units and the timepoint at which it was measured (rlu; Table D) and percent of remaining luciferase activity at the timepoint (Table E) are reported; controls were run with each set of experimental conditions as indicated. The cationic and anionic detergents were assayed on one day with one set of controls. The zwitterionic and nonionic detergents were assayed on a separate day with a separate set of controls. The DTAB at 0.5% was assayed on both days (1 and 2).
The experiment was performed as detailed in Example 1. The average relative light unit values and the percent of ATP remaining values are listed below in Table F and G respectively.
The log of the percent of ATP remaining after original timepoint values from Table E and Table G were plotted on the y axis against time (in minutes) on the x axis. The slope of the line generated by these values in the presence of detergent was divided by the slope of the line generated by the values in the absence of detergent (lysate control) resulting in the Relative ATPase Activity values listed below in Table H.
A relative activity value of 1.0 or greater indicates 100% cellular ATPase activity at the concentration of detergent tested. A relative activity value of 0.5 indicates a two-fold (or 50%) decrease in the level of cellular ATPase activity at the concentration of detergent tested when compared to the ATPase activity level in the absence of the detergent. A relative activity value of 0.2 indicates a five-fold (or 80%) decrease in the level of cellular ATPase activity at the concentration of detergent tested when compared to the ATPase activity level in the absence of the detergent.

[1] = Example 2, 0.02% detergent, 5 min
[2] = Example 2, 0.02% detergent, 75 min
[3] = Example 2, 0.02% detergent, 169 min
[4] = Example 2, 0.02% detergent, 222 min
[5] = Example 2, 0.02% detergent, 260 min

SMILES: CCCCCCCCCCCC[N+](C)(C)Cc1ccccc1.[Br-] [BDDABr, Benzyldimethyldodecylammonium bromide]
- Relative ATPase Activity, slope det/slope lysate (0.02 percent detergent): 0.623
- Slope (log percent ATP remaining vs time in minutes) (0.02 percent detergent): −0.0039
- Average Relative Light Unit Values (0.05% detergent, 5 min): 7077.46 rlu
- Percent ATP Remaining (0.05% detergent, 5 min): 100%
- Average Relative Light Unit Values (0.05% detergent, 75 min): 4539.97 rlu
- Percent ATP Remaining (0.05% detergent, 75 min): 64.1%
- Average Relative Light Unit Values (0.05% detergent, 169 min): 2465.57 rlu
- Percent ATP Remaining (0.05% detergent, 169 min): 34.8%
- Average Relative Light Unit Values (0.05% detergent, 222 min): 1680.16 rlu
- Percent ATP Remaining (0.05% detergent, 222 min): 23.7%
- Average Relative Light Unit Values (0.05% detergent, 260 min): 1233.82 rlu
- Percent ATP Remaining (0.05% detergent, 260 min): 17.4%
- Relative ATPase Activity, slope det/slope lysate (0.05 percent detergent): 0.528
- Slope (log percent ATP remaining vs time in minutes) (0.05 percent detergent): −0.0030
- Average Relative Light Unit Values (0.1% detergent, 5 min): 7069.08 rlu
- Percent ATP Remaining (0.1% detergent, 5 min): 100%
- Average Relative Light Unit Values (0.1% detergent, 75 min): 5136.92 rlu
- Percent ATP Remaining (0.1% detergent, 75 min): 72.7%
- Average Relative Light Unit Values (0.1% detergent, 169 min): 3260.59 rlu
- Percent ATP Remaining (0.1% detergent, 169 min): 46.1%
- Average Relative Light Unit Values (0.1% detergent, 222 min): 2366.49 rlu
- Percent ATP Remaining (0.1% detergent, 222 min): 33.5%
- Average Relative Light Unit Values (0.1% detergent, 260 min): 1767.58 rlu
- Percent ATP Remaining (0.1% detergent, 260 min): 25.0%
- Relative ATPase Activity, slope det/slope lysate (0.10 percent detergent): 0.414
- Slope (log percent ATP remaining vs time in minutes) (0.10 percent detergent): −0.0023
- Average Relative Light Unit Values (0.5% detergent, 5 min): 122.47 rlu
- Percent ATP Remaining (0.5% detergent, 5 min): 100%
- Average Relative Light Unit Values (0.5% detergent, 75 min): 107.39 rlu
- Percent ATP Remaining (0.5% detergent, 75 min): 87.7%
- Average Relative Light Unit Values (0.5% detergent, 169 min): 93.92 rlu
- Percent ATP Remaining (0.5% detergent, 169 min): 76.2%
- Average Relative Light Unit Values (0.5% detergent, 222 min): 96.68 rlu
- Percent ATP Remaining (0.5% detergent, 222 min): 78.9%
- Average Relative Light Unit Values (0.5% detergent, 260 min): 101.11 rlu
- Percent ATP Remaining (0.5% detergent, 260 min): 82.6%
- Relative ATPase Activity, slope det/slope lysate (0.50 percent detergent): 0.064
- Slope (log percent ATP remaining vs time in minutes) (0.50 percent detergent): −0.0004
- Average Relative Light Unit Values (1.0% detergent, 5 min): 0.49 rlu
- Average Relative Light Unit Values (1.0% detergent, 75 min): 0.51 rlu
- Average Relative Light Unit Values (1.0% detergent, 169 min): 0.44 rlu
- Average Relative Light Unit Values (1.0% detergent, 222 min): 0.42 rlu
- Average Relative Light Unit Values (1.0% detergent, 260 min): 0.43 rlu
- Average Relative Light Unit Values [1]: 6215.32 rlu
- Percent ATP Remaining [1]: 100.00%
- Average Relative Light Unit Values [2]: 2686.49 rlu
- Percent ATP Remaining [2]: 48.53%
- Average Relative Light Unit Values [3]: 962.85 rlu
- Percent ATP Remaining [3]: 21.51%
- Average Relative Light Unit Values [4]: 604.47 rlu
- Percent ATP Remaining [4]: 13.18%
- Average Relative Light Unit Values [5]: 429.86 rlu
- Percent ATP Remaining [5]: 9.74%

SMILES: CCCCCCCCCCCCCCCC[N+](C)(C)C.[Br-] [CTAB, Cetyltrimethylammonium bromide]
- Relative ATPase Activity, slope det/slope lysate (0.02 percent detergent): 0.718
- Slope (log percent ATP remaining vs time in minutes) (0.02 percent detergent): −0.0046
- Average Relative Light Unit Values (0.05% detergent, 5 min): 6525.51 rlu
- Percent ATP Remaining (0.05% detergent, 5 min): 100%
- Average Relative Light Unit Values (0.05% detergent, 75 min): 4029.32 rlu
- Percent ATP Remaining (0.05% detergent, 75 min): 61.7%
- Average Relative Light Unit Values (0.05% detergent, 169 min): 2093.80 rlu
- Percent ATP Remaining (0.05% detergent, 169 min): 32.1%
- Average Relative Light Unit Values (0.05% detergent, 222 min): 1437.67 rlu
- Percent ATP Remaining (0.05% detergent, 222 min): 22.0%
- Average Relative Light Unit Values (0.05% detergent, 260 min): 1002.72 rlu
- Percent ATP Remaining (0.05% detergent, 260 min): 15.4%
- Relative ATPase Activity, slope det/slope lysate (0.05 percent detergent): 0.561
- Slope (log percent ATP remaining vs time in minutes) (0.05 percent detergent): −0.0031
- Average Relative Light Unit Values (0.1% detergent, 5 min): 5104.82 rlu
- Percent ATP Remaining (0.1% detergent, 5 min): 100%
- Average Relative Light Unit Values (0.1% detergent, 75 min): 3607.65 rlu
- Percent ATP Remaining (0.1% detergent, 75 min): 70.7%
- Average Relative Light Unit Values (0.1% detergent, 169 min): 1889.29 rlu
- Percent ATP Remaining (0.1% detergent, 169 min): 37.0%
- Average Relative Light Unit Values (0.1% detergent, 222 min): 1248.51 rlu
- Percent ATP Remaining (0.1% detergent, 222 min): 24.5%
- Relative ATPase Activity, slope det/slope lysate (0.10 percent detergent): 0.507
- Slope (log percent ATP remaining vs time in minutes) (0.10 percent detergent): −0.0028
- Average Relative Light Unit Values (0.5% detergent, 5 min): 0.34 rlu
- Average Relative Light Unit Values (0.5% detergent, 75 min): 0.28 rlu
- Average Relative Light Unit Values (0.5% detergent, 169 min): 0.23 rlu
- Average Relative Light Unit Values (0.5% detergent, 222 min): 0.27 rlu
- Average Relative Light Unit Values (0.5% detergent, 260 min): 0.18 rlu
- Average Relative Light Unit Values (1.0% detergent, 5 min): 0.09 rlu
- Average Relative Light Unit Values (1.0% detergent, 75 min): 0.08 rlu
- Average Relative Light Unit Values (1.0% detergent, 169 min): 0.07 rlu
- Average Relative Light Unit Values (1.0% detergent, 222 min): 0.06 rlu
- Average Relative Light Unit Values (1.0% detergent, 260 min): 0.07 rlu
- times more ATP present in the sample after four hours when the detergent was present than when it was absent (CTAB 0.05%): about four
- Percent ATP Remaining [1]: 100.00%
- Percent ATP Remaining [2]: 43.22%
- Percent ATP Remaining [3]: 15.49%
- Percent ATP Remaining [4]: 9.73%
- Percent ATP Remaining [5]: 6.92%
